Data reported in US5179088A, “1-Carba(dethia)cephalosporin antibiotics” (Eli Lilly and Company, priority 1990, dated 1993).

What was measured:
Format in all cases: cell-based
Set-up in all cases: unit not given here
Enterbacter Aerogenes = assay: in vitro antibacterial activity, agar dilution (Enterobacter aerogenes)
Protocol: (§1) *minimum inhibitory concentrations were determined by the Agardilution

Proteus morg = assay: in vitro antibacterial activity, agar dilution (Proteus morg)
Protocol: as §1

Citro = assay: in vitro antibacterial activity, agar dilution (Citro)
Protocol: as §1

Pseudomonas = assay: in vitro antibacterial activity, agar dilution (Pseudomonas)
Protocol: as §1

Proteus rett = assay: in vitro antibacterial activity, agar dilution (Proteus rett)
Protocol: as §1

Streptococcus pn = assay: in vitro antibacterial activity, agar dilution (Streptococcus pn); details: strain PARK
Protocol: as §1

Proteus incon = assay: in vitro antibacterial activity, agar dilution (Proteus incon)
Protocol: as §1

Streptococcus A = assay: in vitro antibacterial activity, agar dilution (Streptococcus A)
Protocol: as §1

H. Influ. = assay: in vitro antibacterial activity, agar dilution (H. influ.)
Protocol: as §1

Enterbacter Cloacea = assay: in vitro antibacterial activity, agar dilution (Enterobacter cloacae)
Protocol: as §1

E. coli = assay: in vitro antibacterial activity, agar dilution (E. coli)
Protocol: as §1

Acin = assay: in vitro antibacterial activity, agar dilution (Acin)
Protocol: as §1

Staphylococcus Aureus = assay: in vitro antibacterial activity, agar dilution (Staphylococcus aureus)
Protocol: as §1

Shig. sonn = assay: in vitro antibacterial activity, agar dilution (Shig. sonn)
Protocol: as §1

Staphylococcus Epi = assay: in vitro antibacterial activity, agar dilution (Staphylococcus epi)
Protocol: as §1

Klebsiella = assay: in vitro antibacterial activity, agar dilution (Klebsiella)
Protocol: as §1

Salmonella = assay: in vitro antibacterial activity, agar dilution (Salmonella)
Protocol: as §1

Serratia = assay: in vitro antibacterial activity, agar dilution (Serratia)
Protocol: as §1

Streptococcus D = assay: in vitro antibacterial activity, agar dilution (Streptococcus D)
Protocol: as §1

For `CO/N=C(\C(=O)N[C@@H]1C(=O)N2C(C(=O)O)=C(c3csc(-c4ccco4)n3)CC[C@H]12)c1csc(N)n1` [Example 32], the minimum inhibitory concentration (Enterbacter Aerogenes; strain C32) was 1, the minimum inhibitory concentration (Enterbacter Aerogenes; strain C32, retest) was “.5” and the minimum inhibitory concentration (Enterbacter Aerogenes; strain EB17) was 1. It also gave a minimum inhibitory concentration (Enterbacter Aerogenes; strain EB17, retest) of 1, a minimum inhibitory concentration (Proteus morg; strain PR15) of 2 and a minimum inhibitory concentration (Proteus morg; strain PR15, retest) of 2. For the same molecule, the minimum inhibitory concentration (Citro; strain CF17) was “.5”, the minimum inhibitory concentration (Citro; strain CF17, retest) was 1 and the minimum inhibitory concentration (Pseudomonas; strain PS18) was greater than 128. For the same molecule, the minimum inhibitory concentration (Pseudomonas; strain PS18, retest) was greater than 128, the minimum inhibitory concentration (Pseudomonas; strain PS72) was greater than 128 and the minimum inhibitory concentration (Pseudomonas; strain PS72, retest) was greater than 128. The minimum inhibitory concentration (Pseudomonas; strain X239) was greater than 128, the minimum inhibitory concentration (Pseudomonas; strain X239, retest) was greater than 128 and the minimum inhibitory concentration (Pseudomonas; strain X528) was greater than 128. For the same molecule, the minimum inhibitory concentration (Pseudomonas; strain X528, retest) was greater than 128, the minimum inhibitory concentration (Proteus rett; strain C24) was “.5” and the minimum inhibitory concentration (Proteus rett; strain C24, retest) was “.5”. For the same molecule, the minimum inhibitory concentration (Streptococcus pn) was “.03”, the minimum inhibitory concentration (Streptococcus pn; retest) was “.03” and the minimum inhibitory concentration (Proteus incon; strain PR33) was “.5”. The minimum inhibitory concentration (Proteus incon; strain PR33, retest) was “.25”, the minimum inhibitory concentration (Streptococcus A; strain C203) was “.015” and the minimum inhibitory concentration (Streptococcus A; strain C203, retest) was “.015”. For the same molecule, the minimum inhibitory concentration (H. Influ.; res, strain 76) was “< .008”, the minimum inhibitory concentration (H. Influ.; res, strain 76, retest) was “.015” and the minimum inhibitory concentration (H. Influ.; sens, strain C.L.) was “.06”. The minimum inhibitory concentration (H. Influ.; sens, strain C.L., retest) was “.03”, the minimum inhibitory concentration (Enterbacter Cloacea; strain 265A) was 128 and the minimum inhibitory concentration (Enterbacter Cloacea; strain 265A, retest) was 128. It also gave a minimum inhibitory concentration (Enterbacter Cloacea; strain EB5) of 2, a minimum inhibitory concentration (Enterbacter Cloacea; strain EB5, retest) of 2 and a minimum inhibitory concentration (E. coli; strain EC14) of 1. The minimum inhibitory concentration (E. coli; strain EC14, retest) was “.5”, the minimum inhibitory concentration (E. coli; strain N10) was 1 and the minimum inhibitory concentration (E. coli; strain N10, retest) was 1. For the same molecule, the minimum inhibitory concentration (E. coli; strain TEM) was “< .008”, the minimum inhibitory concentration (E. coli; strain TEM, retest) was “.5” and the minimum inhibitory concentration (Acin; strain AC12) was 128. For the same molecule, the minimum inhibitory concentration (Acin; strain AC12, retest) was 128, the minimum inhibitory concentration (Staphylococcus Aureus; strain S13E) was 128 and the minimum inhibitory concentration (Staphylococcus Aureus; strain S13E, retest) was 128. The minimum inhibitory concentration (Staphylococcus Aureus; strain V41) was 8, the minimum inhibitory concentration (Staphylococcus Aureus; strain V41, retest) was 4 and the minimum inhibitory concentration (Staphylococcus Aureus; strain X1.1) was 4. The minimum inhibitory concentration (Staphylococcus Aureus; strain X1.1, retest) was 2, the minimum inhibitory concentration (Staphylococcus Aureus; strain X400) was greater than 128 and the minimum inhibitory concentration (Staphylococcus Aureus; strain X400, retest) was greater than 128. The minimum inhibitory concentration (Shig. sonn; strain N9) was 1, the minimum inhibitory concentration (Shig. sonn; strain N9, retest) was 1 and the minimum inhibitory concentration (Staphylococcus Epi; strain 222) was 4. It also gave a minimum inhibitory concentration (Staphylococcus Epi; strain 222, retest) of 4, a minimum inhibitory concentration (Staphylococcus Epi; strain 270) of 16 and a minimum inhibitory concentration (Staphylococcus Epi; strain 270, retest) of 8. For the same molecule, the minimum inhibitory concentration (Klebsiella; strain KAE) was 1, the minimum inhibitory concentration (Klebsiella; strain KAE, retest) was 16 and the minimum inhibitory concentration (Klebsiella; strain X26) was 8. The minimum inhibitory concentration (Klebsiella; strain X26, retest) was “< .008”, the minimum inhibitory concentration (Klebsiella; strain X68) was 1 and the minimum inhibitory concentration (Klebsiella; strain X68, retest) was 1. The minimum inhibitory concentration (Salmonella; strain 1335) was 4, the minimum inhibitory concentration (Salmonella; strain 1335, retest) was 2 and the minimum inhibitory concentration (Salmonella; strain X514) was 1. For the same molecule, the minimum inhibitory concentration (Salmonella; strain X514, retest) was 1, the minimum inhibitory concentration (Serratia; strain SE3) was 16 and the minimum inhibitory concentration (Serratia; strain SE3, retest) was 16. It also gave a minimum inhibitory concentration (Serratia; strain X99) of 14, a minimum inhibitory concentration (Serratia; strain X99, retest) of 2 and a minimum inhibitory concentration (Streptococcus D; strain 2041) of 16. The minimum inhibitory concentration (Streptococcus D; strain 2041, retest) was 16, the minimum inhibitory concentration (Streptococcus D; strain X66) was greater than 128 and the minimum inhibitory concentration (Streptococcus D; strain X66, retest) was greater than 128.
